Series [1] can be described thus: Cmax in Wistar Han rat at 10 mg/kg, po. The series is classed as ADME, organism-based. More on the design: route oral, dose 10 mg/kg. Particulars: in vivo.
Series [2] deals with T1, Protein deacetylase HDAC6 (Homo sapiens, UniProt Q9UBN7).
T1 sequence (Q9UBN7 whole entry): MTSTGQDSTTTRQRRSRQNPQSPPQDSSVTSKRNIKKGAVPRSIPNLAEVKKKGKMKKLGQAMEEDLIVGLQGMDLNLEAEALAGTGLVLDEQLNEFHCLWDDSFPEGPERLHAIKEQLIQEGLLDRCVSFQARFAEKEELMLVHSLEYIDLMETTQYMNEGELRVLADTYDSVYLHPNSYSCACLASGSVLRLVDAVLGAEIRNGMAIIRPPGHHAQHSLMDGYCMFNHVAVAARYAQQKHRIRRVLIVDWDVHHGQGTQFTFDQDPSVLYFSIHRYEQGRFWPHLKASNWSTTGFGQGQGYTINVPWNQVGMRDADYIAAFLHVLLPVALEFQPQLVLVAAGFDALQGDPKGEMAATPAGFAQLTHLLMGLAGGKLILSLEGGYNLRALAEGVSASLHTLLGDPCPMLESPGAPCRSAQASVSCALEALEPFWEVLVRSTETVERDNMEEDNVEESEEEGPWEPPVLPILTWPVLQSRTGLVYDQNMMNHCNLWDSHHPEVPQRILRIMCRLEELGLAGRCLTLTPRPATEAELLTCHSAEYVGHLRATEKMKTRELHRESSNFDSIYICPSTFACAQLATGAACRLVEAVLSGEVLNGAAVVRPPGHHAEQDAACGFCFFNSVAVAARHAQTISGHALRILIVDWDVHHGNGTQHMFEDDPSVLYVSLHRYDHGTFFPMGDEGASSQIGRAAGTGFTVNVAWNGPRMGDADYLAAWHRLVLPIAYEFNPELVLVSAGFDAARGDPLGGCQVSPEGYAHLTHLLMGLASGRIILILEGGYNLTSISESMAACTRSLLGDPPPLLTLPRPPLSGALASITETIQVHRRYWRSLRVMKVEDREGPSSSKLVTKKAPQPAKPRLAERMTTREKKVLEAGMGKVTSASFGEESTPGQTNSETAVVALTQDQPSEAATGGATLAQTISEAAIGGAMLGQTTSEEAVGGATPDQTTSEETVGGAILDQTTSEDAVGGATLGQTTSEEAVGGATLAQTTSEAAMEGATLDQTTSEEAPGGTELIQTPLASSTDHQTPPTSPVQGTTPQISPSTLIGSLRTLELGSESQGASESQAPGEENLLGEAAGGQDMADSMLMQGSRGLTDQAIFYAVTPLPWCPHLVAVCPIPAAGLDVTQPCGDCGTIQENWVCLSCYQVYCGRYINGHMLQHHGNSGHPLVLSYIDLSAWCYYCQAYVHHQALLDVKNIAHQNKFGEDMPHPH
The series can be described thus: Inhibition of HDAC6 (unknown origin).

The test system of series [3] is Human immunodeficiency virus. Put plainly: Reactivation of HIV latency infected in human 2C4 cells in presence of 0.1 % NHS by luciferase reporter gene assay. The conditions noted are these: Human immunodeficiency virus 1, 2C4. Format: functional, organism-based. For orientation: A reporter such as luciferase makes a cellular process visible.
Series [4] is described as follows: AUC in Wistar Han rat at 10 mg/kg, po. The series is classed as ADME, organism-based. More on the design: dose 10 mg/kg. Particulars: in vivo.
The nature of series [5]: Oral bioavailability in Wistar Han rat at 10 mg/kg. The series is classed as ADME, organism-based. The conditions noted are these: in vivo.
A short description of series [6]: Half life in Wistar Han rat at 2 mg/kg, iv. Format: ADME, organism-based. Particulars: in vivo.
In series [7] the target is T2, Histone deacetylase 8 (Homo sapiens, UniProt Q9BY41).
T2 sequence (Q9BY41 whole entry): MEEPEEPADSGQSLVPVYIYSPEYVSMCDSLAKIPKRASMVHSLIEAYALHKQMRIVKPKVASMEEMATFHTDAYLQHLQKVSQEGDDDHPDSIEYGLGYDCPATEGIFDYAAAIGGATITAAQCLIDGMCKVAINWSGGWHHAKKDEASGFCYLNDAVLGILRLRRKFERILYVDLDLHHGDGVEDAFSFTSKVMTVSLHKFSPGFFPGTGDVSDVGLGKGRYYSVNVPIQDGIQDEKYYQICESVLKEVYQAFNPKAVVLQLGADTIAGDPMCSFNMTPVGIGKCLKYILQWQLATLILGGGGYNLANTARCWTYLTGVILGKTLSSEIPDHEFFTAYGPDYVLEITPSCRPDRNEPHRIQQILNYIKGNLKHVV
Put plainly: Inhibition of HDAC8 (unknown origin).

In series [8] the test system is Human immunodeficiency virus. Put plainly: Reactivation of HIV latency infected in human 2C4 cells in presence of 5 % NHS by luciferase reporter gene assay. The series is classed as functional, organism-based. The conditions noted are these: Human immunodeficiency virus 1, 2C4.
A short description of series [9]: Plasma concentration in Wistar Han rat at 10 mg/kg, po after 24 hrs. Format: ADME, organism-based.
Series [10] in a line: Clearance in Wistar Han rat at 2 mg/kg, iv. Format: ADME, organism-based. Particulars: in vivo.
Series [11] is described as follows: Tmax in Wistar Han rat at 10 mg/kg, po. The series is classed as ADME, organism-based. Particulars: in vivo.
Series [12] can be described thus: Ratio of EC50 for reactivation of HIV latency infected in human 2C4 cells in presence of 5 % NHS by luciferase reporter gene assay to EC50 for reactivation of HIV latency infected in human 2C4 cells in presence of 0.1 % NHS by luciferase reporter gene assay. The series is classed as functional, Human immunodeficiency virus.
The species named for series [13] is Homo sapiens. The series can be described thus: Selectivity ratio of IC50 for HDAC8 (unknown origin) to IC50 for HDAC6 (unknown origin).
Series [14] is described as follows: Clearance in Wistar Han rat at 0.05 mg/kg, iv. Format: ADME, organism-based. The conditions noted are these: in vivo.
The nature of series [15]: Half life in Wistar Han rat at 0.05 mg/kg, iv. The series is classed as ADME, organism-based. The conditions noted are these: in vivo.
Series [16] has as its target Histone deacetylase 3 (Homo sapiens, UniProt O15379). The series can be described thus: Inhibition of HDAC3 (unknown origin).

The structures appear in SMILES notation. A value given as a limit tells only on which side of the number the result lay.

Histone deacetylase 3, sequence (O15379 whole entry): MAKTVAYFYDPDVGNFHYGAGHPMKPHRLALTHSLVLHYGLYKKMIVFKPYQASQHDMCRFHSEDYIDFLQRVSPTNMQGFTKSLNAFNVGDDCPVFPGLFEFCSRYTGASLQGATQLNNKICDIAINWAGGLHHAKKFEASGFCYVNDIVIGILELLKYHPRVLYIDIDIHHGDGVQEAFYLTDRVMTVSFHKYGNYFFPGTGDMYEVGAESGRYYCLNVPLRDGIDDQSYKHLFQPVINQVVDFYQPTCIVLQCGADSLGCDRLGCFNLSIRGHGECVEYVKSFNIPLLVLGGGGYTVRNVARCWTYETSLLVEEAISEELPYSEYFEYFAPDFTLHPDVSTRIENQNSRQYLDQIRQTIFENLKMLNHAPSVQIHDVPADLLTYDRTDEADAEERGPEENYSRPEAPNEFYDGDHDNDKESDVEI

A word on the Cmax: it is the peak of the concentration-time curve. One may read the IC50 as the concentration at which inhibition is half-maximal. Read a high IC50 as weaker potency. By EC50 is commonly meant the midpoint of the concentration-response curve. As usually defined, the AUC is concentration integrated over time. Low readings indicate less exposure, high ones more exposure. Usually bioavailability stands for dose-corrected exposure relative to a reference, in per cent. High values mean good availability, low ones poor availability. One may read the half-life as the time in which the quantity being followed falls by half. High values mean slow loss, low ones fast loss. What is called clearance is the volume of plasma or blood freed of the substance per unit of time. One may read the Tmax as the time from dosing to the highest level. `CCC(=O)CCCCC[C@@H]1NC(=O)[C@H]2CC23CCN(CCOCCn2ccc4cc(ccc4c2=O)-c2cnc1[nH]2)CC3` gave a Cmax in series [1] of 0.062 µM. Also, the IC50 in series [2] and in [7] was above 900 nM each time. Moreover, the EC50 in series [3] and in series [8] was above 40000 nM each time. In addition, the AUC in [4] came to 110 nM·h. In [5], the bioavailability was found to be 0.15%. In series [6], the half-life was 3.9 h. The concentration at 24 h in [9] was 0.001 µM. The same compound displayed a clearance in [10] of 0.234 L/h/kg. In addition, the Tmax in series [11] came to 0.25 h.
With `CCC(=O)CCCCC[C@@H]1NC(=O)[C@H]2CC23CCN(CCCCCCCCn2ccc4cc(c(OC)cc4c2=O)-c2cnc1[nH]2)CC3`, in series [1], the concentration peaked (Cmax) at 0.013 µM. The EC50 in [3] amounted to 11 nM; in [8], 12 nM. The same compound showed an AUC in series [4] of 40 nM·h. Also, the bioavailability in series [5] came out at 2.9%. Also, the “Ratio EC50” value in series [12] came out at 1.1. In series [6], this compound gave a half-life of 1.4 h. In [7], this compound yielded an IC50 above 900 nM. The clearance in series [10] turned out to be 5.76 L/h/kg. For the same compound, the Ratio IC50 in [13] was above 1000. Further, the time to peak (Tmax) in series [11] is 3 h.
As for `CCC(=O)CCCCC[C@@H]1NC(=O)[C@H]2CC23CCN(CCCCCCCCn2ccc4cc(ccc4c2=O)-c2cnc1[nH]2)CC3`, the clearance in [14] was 18.7 L/h/kg. Further, the IC50 was above 900 nM in series [2], above 900 nM in series [7] and 0.06 nM in series [16]. Also, the results for the EC50 in [3] and in series [8] were 14 nM and 16 nM, respectively. The “Ratio EC50” value in series [12] was determined as 1.1. In series [15], this compound had a half-life of 2.8 h. Besides, in [13], the Ratio IC50 was above 1000.

(Values after ChEMBL document CHEMBL4811291, “Discovery of macrocyclic HDACs 1, 2, and 3 selective inhibitors for HIV latency reactivation” (Bioorg Med Chem Lett, 2021).)
